According to patent US12215106B2, “Pharmaceutical compounds and therapeutic methods” (RUTGERS, THE STATE UNIVERSITY OF NEW JERSEY, priority 2018, dated 2025):

Legend:
[1] = Bi-directional Caco-2 transport assay; format: in vitro ADME; settings: human, Caco-2, 5 μM
Method: (§1) The objective of the study is to evaluate test compounds as substrates for efflux transporter using Caco-2 cell line. To assess the functionality of P-glycoprotein (P-gp), loperamide was run as a positive control (Apical and basolateral HBSS pH 7.4).
(§2) 5 mM DMSO stock of test compounds and loperamide was diluted 1000-folds in HBSS having 0.1% DMSO to prepare concentrations of 5 μM.
(§3) Caco-2 cells were grown in DMEM (20% FBS) until 85-90% confluence. After attaining required confluence, cells were trypsinized and seeded into 24 well millcell plates at a density of 0.6×10^5 cells/insert. The plates were maintained for 21 days at 37° C. in CO2 incubator with change of medium every alternative day. Monolayer integrity was monitored by measuring Trans-epithelial electrical resistance (TEER) from day 15.
(§4) Caco-2 cell monolayer was washed twice with HBSS and incubated for 40 min in CO2 incubator. TEER values were measured and wells showing TEER values above 230 ohms·cm^2 were taken for experiments. The study was performed in loperamide and test compounds by adding 400 μL of loperamide prepared in HBSS in apical (A-B transport) followed by addition of 800 μL of HBSS on basal side and for B-A transport 800 μL of loperamide prepared in HBSS was dosed in basal followed by addition of 400 μL HBSS on apical side. At selected time points (0, 15, 30, 60 and 90 mins) an aliquot of 50 μL was collected from the receiver compartment for determination of test compound concentrations. The volume withdrawn was replaced immediately with HBSS buffer. TEER was measured at the end to the experiment to confirm any damage of monolayer while performing experiment. Those wells with TEER not meeting the criteria were excluded from the study.
(§5) A 50 μL of test compound samples collected at respective time points and submitted for LC-MS/MS analysis.
(§6) The apparent permeability (Papp) (A−B & B−A) of test compounds and positive control was calculated using the following formula: Papp=dQ/dt/A·Co where, dQ/dt=linear slope of test compound concentration in receptor chamber with time (0, 15, 30, 60 and 90 min) after correcting for dilution; A=area of the filter (0.7 cm^2); and Co=initial concentration of compound in the donor compartment.
(§7) Efflux ratio (RE) was calculated using the following equation: RE=PB/A/PA/B where PB/A and PA/B represent the apparent permeability of test compound from the basal to apical and apical to basal side of cell monolayer.
(§8) Recovery represents: (amount of the compound recovered from donor at end of incubation+cumulative amount of compound in acceptor at end of incubation+amount of the compound in cell lysate or assay well)/amount of compound in donor solution at time zero*100
(§9) Compounds are classified based on Papp values as follows:
(§10) A compound having efflux ratio of >2 is considered as having potential as a P-gp substrate.

P-gp = test: Bi-directional Caco-2 transport assay; format: in vitro ADME; settings: human, Caco-2; efflux ratio >2: potential P-gp substrate; read-out: Efflux Ratio (B-A/A-B)
Method: as §1, §2, §3, §4, §5, §6, §7, §8, §9, §10

in vitro = in vitro ADME, mice; settings: mouse; for fraction unbound at 4 h, 5 μM: plasma
Method: (§11) The objective of this study was to evaluate protein binding test compounds in mice plasma. This was accomplished by spiking the test compounds at a concentration of 5 μM into mice plasma and dialyzing against buffer until equilibrium is achieved (4 hours). Analyte area ratios of the test compounds in plasma and buffer were determined to calculate unbound and bound percentages of compound to the plasma proteins.
(§12) Phosphate buffered saline pack (0.1 M sodium phosphate and 0.15 M sodium chloride, pH 7.2) was dissolved in 500 mL of deionized water and pH was adjusted to 7.4 with 0.5 N NaOH.
(§13) 1 mM stock solutions were prepared in DMSO and diluted 200-folds in mice plasma to prepare a concentration of 5 μM. The final DMSO concentration in plasma was 0.5%.
(§14) Rapid equilibrium dialysis was performed with a rapid equilibrium dialysis (RED) device containing dialysis membrane with a molecular weight cut-off of 8,000 Daltons. Each dialysis insert contains two chambers. The red chamber is for plasma while the white chamber is for buffer.
(§15) A 200 μL aliquot of warfarin and test compound at 5 (triplicates) were separately added to the plasma chamber and 350 μL of phosphate buffer saline (pH 7.4) was added to the buffer chamber of the inserts. After sealing the RED device with an adhesive film, dialysis was performed in incubator at 37° C. with shaking at 100 RPM for 4 hours.
(§16) A 50 μL aliquot of warfarin and test compounds were added to four 0.5 mL microfuse tubes. Two aliquots were frozen immediately (0 minute sample). The other two aliquots were incubated at 37° C. for 4 hours along with the RED device.
(§17) Following dialysis, an aliquot of 50 μL was removed from each well (both plasma and buffer side) and diluted with equal volume of opposite matrix (dialyzed with the other matrix) to nullify the matrix effect. Similarly, 50 μL of buffer was added to recovery and stability samples. An aliquot of 100 μL was submitted for LCMS/MS analysis.
(§18) A 25 μL aliquot of warfarin and test compounds were crashed with 100 μL of acetonitrile containing internal standard (glipizide) and vortexed for 5 minutes. The samples were centrifuged at 4000 RPM at 4° C. for 10 min and 100 μL of supernatant was submitted for LC-MS/MS analysis. Samples were monitored for parent compound in MRM mode using LC-MS/MS.
(§19) The peak area ratios (analyte versus internal standard) obtained were used to determine the fraction of compound bound to plasma proteins.

mice plasma = test: in vitro; format: in vitro ADME; settings: mouse, plasma, 4 h, 5 μM
Method: as §11, §12, §13, §14, §15, §16, §17, §18, §19

Row | SMILES | Papp A→B at 90 min, 5 μM ([1]; HBSS pH 7.4, apical to basal, read-out: Papp (A-B)) | Papp B→A at 90 min, 5 μM ([1]; HBSS pH 7.4, basal to apical, read-out: Papp (B-A)) | efflux ratio at 90 min, 5 μM (P-gp) | recovery at 4 h, 5 µM (in vitro; Plasma, pH 7.4) | fraction unbound at 4 h, 5 μM (in vitro; pH 7.4, % Bound Mean ± SD) | fraction unbound at 4 h, 5 μM (in vitro; pH 7.4, % Bound R1) | fraction unbound at 4 h, 5 μM (in vitro; pH 7.4, % Bound R2) | fraction unbound at 4 h, 5 μM (in vitro; pH 7.4, % Bound R3) | % compound remaining at 4 hrs (mice plasma)
1 | CN(C)C(=O)C(CCN1CCC(O)(c2ccc(Cl)cc2)CC1)(c1ccccc1)c1ccccc1 [Loperamide, reference compound] | 1.6 ± 0.2 ×10⁻⁶ cm/s | 8.4 ± 1.2 ×10⁻⁶ cm/s | 5.2 | – | – | – | – | – | –
2 | CC(=O)CC(c1ccccc1)c1c(O)c2ccccc2oc1=O (stereo not drawn) [Warfarin, reference compound] | – | – | – | 109% | 0.069 | 0.071 | 0.075 | 0.062 | 94%
